Results: patent US9549917B2, “Heterocyclic-substituted benzofuran derivatives and methods of use thereof for the treatment of viral diseases” (priority 2011, dated 2017)

Columns and labels:
HCV replicon genotype 1b = assay: HCV replicon assay, genotype 1b (cell ELISA for NS3/4A); format: cell-based; conditions: Hepatitis C virus, 96 h, read-out: 1b IC50 (nM)
Protocol: (§1) Measurement of inhibition by compounds was performed using the HCV replicon system. Several different replicons encoding different HCV genotypes or mutations were used. In addition, potency measurements were made using different formats of the replicon assay, including different ways of measurements and different plating formats. See Jan M. Vrolijk et al., A replicons-based bioassay for the measurement of interferons in patients with chronic hepatitis C, 110 J. V[…] 201 (2003); Steven S. Carroll et al., Inhibition of Hepatitis C Virus RNA Replication by 2′-Modified Nucleoside Analogs, 278(14) J. BIOLOGICAL CHEMISTRY 11979 (2003). However, the underlying principles are common to all of these determinations, and are outlined below.
(§2) Stable neomycin phosphotransferase encoding replicons-harboring cell lines were used, so all cell lines were maintained under G418 selection prior to the assay. Potency was determined using a cell ELISA assay with an antibody to the replicons encoded NS3/4a protease. See Caterina Trozzi et al., In Vitro Selection and Characterization of Hepatitis C Virus Serine Protease Variants Resistant to an Active-Site Peptide Inhibitor, 77(6) J. Virol. 3669 (2003). To initiate an assay, replicon cells were plated in the presence of a dilution series of test compound in the absence of G418. Typically, the assays were performed in a 96-well plate formate for manual operation, or a 384-well plate format for automated assay. Replicon cells and compound were incubated for 96 hours. At the end of the assay, cells were washed free of media and compound, and the cells were then lysed. RNA was quantified indirectly through detection of replicon-encoded NS3/4A protein levels, through an ELISA-based assay with an antibody specific for NS3/4A. IC50 determinations were calculated as a percentage of a DMSO control by fitting the data to a four-parameter fit function and the data obtained is provided in the table below.
(§3) Data for selected compounds of the present invention was obtained for genotypes 1a and 1b using this method and is provided in the table below: […]

HCV replicon genotype 1a = assay: HCV replicon assay, genotype 1a (cell ELISA for NS3/4A); format: cell-based; conditions: Hepatitis C virus, 96 h, read-out: 1a IC50 (nM)
Protocol: as §1, §2, §3

## CNC(=O)c1c(-c2ccc(F)cc2)oc2cc(N(C)S(C)(=O)=O)c(-c3cnnc(-c4cc5c(F)cccc5n4CCOC)c3)cc12 [Compound 279]
HCV replicon genotype 1b
  IC50: 3.2 nM
HCV replicon genotype 1a
  IC50: 2.5 nM

## CNC(=O)c1c(-c2ccc(F)cc2)oc2cc(N(C)S(C)(=O)=O)c(-c3nc(-c4cc5ccccc5[nH]4)c(OC)cc3OC)cc12 [Compound 224]
HCV replicon genotype 1b
  IC50: 31 nM
HCV replicon genotype 1a
  IC50: 99 nM

## CNC(=O)c1c(-c2ccc(F)cc2)oc2cc(N(C)S(C)(=O)=O)c(-c3cncc(-c4nc5c(s4)CCCC5)c3)cc12 [Compound 82]
HCV replicon genotype 1b
  IC50: 1.1 nM
HCV replicon genotype 1a
  IC50: 0.8 nM

## CNC(=O)c1c(-c2ccc(F)cc2)oc2cc(N(C)S(C)(=O)=O)c(-c3cnnc(-c4cc5c(F)cccc5[nH]4)c3)cc12 [Compound 259]
HCV replicon genotype 1b
  IC50: 2.6 nM
HCV replicon genotype 1a
  IC50: 1.1 nM

## CNC(=O)c1c(-c2ccc(F)cc2)oc2cc(N(C)S(C)(=O)=O)c(-c3cnc(OC)c(-c4nc5c(F)cccc5o4)c3)cc12 [Compound 1, 5-(5-(4-fluorobenzo[d]oxazol-2-yl)-6-methoxypyridin-3-yl)-2-(4-fluorophenyl)-N-methyl-6-(N-methylmethylsulfonamido)benzofuran-3-carboxamide]
HCV replicon genotype 1b
  IC50: 0.6 nM
HCV replicon genotype 1a
  IC50: 0.9 nM

## CNC(=O)c1c(-c2ccc(F)cc2)oc2cc(N(C)S(C)(=O)=O)c(-c3ccc(O)c(C4Cc5c(F)cccc5N4)n3)cc12 (stereo not shown) [Compound 257, 5-(6-(4-fluoroindolin-2-yl)-5-hydroxypyridin-2-yl)-2-(4-fluorophenyl)-N-methyl-6-(N-methylmethylsulfonamido)benzofuran-3-carboxamide]
HCV replicon genotype 1b
  IC50: 10 nM
HCV replicon genotype 1a
  IC50: 13 nM

## CNC(=O)c1c(-c2ccc(F)cc2)oc2cc(N(C)S(C)(=O)=O)c(-c3cc(-c4cc5ccccc5[nH]4)c(OC)cn3)cc12 [Compound 202]
HCV replicon genotype 1b
  IC50: 7.6 nM
HCV replicon genotype 1a
  IC50: 8.4 nM

## CNC(=O)c1c(-c2ccc(F)cc2)oc2cc(N(C)S(C)(=O)=O)c(-c3cc(-c4cc5c(F)cccc5[nH]4)nc(N)n3)cc12 [Compound 272]
HCV replicon genotype 1b
  IC50: 4.4 nM
HCV replicon genotype 1a
  IC50: 4.2 nM

## CNC(=O)c1c(-c2ccc(F)cc2)oc2cc(N(C)S(C)(=O)=O)c(-c3cc(-c4cc5c(F)cccc5[nH]4)nnc3OC)cc12 [Compound 223]
HCV replicon genotype 1b
  IC50: 4.5 nM
HCV replicon genotype 1a
  IC50: 2.8 nM

## CNC(=O)c1c(-c2ccc(F)cc2)oc2cc(N(C)S(C)(=O)=O)c(-c3ccnc(-c4cc5ccccc5[nH]4)c3)cc12 [Compound 109]
HCV replicon genotype 1b
  IC50: 1 nM
HCV replicon genotype 1a
  IC50: 0.4 nM

## CNC(=O)c1c(-c2ccc(F)cc2)oc2cc(N(C)S(C)(=O)=O)c(-c3cc(-c4cc5c(F)cccc5[nH]4)ncc3Cl)cc12 [Compound 292]
HCV replicon genotype 1b
  IC50: 13 nM
HCV replicon genotype 1a
  IC50: 12 nM

## CNC(=O)c1c(-c2ccc(F)cc2)oc2cc(N(C)S(C)(=O)=O)c(-c3cc(-c4cc5c(F)cccc5[nH]4)ncn3)cc12 [Compound 119]
HCV replicon genotype 1b
  IC50: 1.5 nM
HCV replicon genotype 1a
  IC50: 0.7 nM

## CNC(=O)c1c(-c2ccc(F)cc2)oc2cc(N(C)S(C)(=O)=O)c(-c3nnc(-c4cc5c(F)cccc5[nH]4)o3)cc12 [Compound 256, 5-(5-(4-fluoro-1H-indol-2-yl)-1,3,4-oxadiazol-2-yl)-2-(4-fluorophenyl)-N-methyl-6-(N-methylmethylsulfonamido)benzofuran-3-carboxamide]
HCV replicon genotype 1b
  IC50: 0.7 nM
HCV replicon genotype 1a
  IC50: 0.4 nM

## CNC(=O)c1c(-c2ccc(F)cc2)oc2cc(N(C)S(C)(=O)=O)c(-c3cnc(OC)c(-c4cc5cccc(F)c5[nH]4)n3)cc12 [Compound 226]
HCV replicon genotype 1b
  IC50: 7.2 nM
HCV replicon genotype 1a
  IC50: 3.4 nM

## CNC(=O)c1c(-c2ccc(F)cc2)oc2cc(N(C)S(C)(=O)=O)c(-c3cncc(-c4nc5ccccc5s4)c3)cc12 [Compound 62]
HCV replicon genotype 1b
  IC50: 1.2 nM
HCV replicon genotype 1a
  IC50: 2 nM

## CNC(=O)c1c(-c2ccc(F)cc2)oc2cc(N(C)S(C)(=O)=O)c(-c3cc(-c4cc5ccccc5[nH]4)ncn3)cc12 [Compound 108, 5-(6-(1H-indol-2-yl)pyrimidin-4-yl)-2-(4-fluorophenyl)-N-methyl-6-(N-methylmethylsulfonamido)benzofuran-3-carboxamide]
HCV replicon genotype 1b
  IC50: 1.2 nM
HCV replicon genotype 1a
  IC50: 0.7 nM

## CNC(=O)c1c(-c2ccc(F)cc2)oc2cc(N(C)S(C)(=O)=O)c(-c3cc(-c4cc5c(F)cccc5n4CCOC)cnn3)cc12 [Compound 278]
HCV replicon genotype 1b
  IC50: 14 nM
HCV replicon genotype 1a
  IC50: 37 nM

## CNC(=O)c1c(-c2ccc(F)cc2)oc2cc(N(C)S(C)(=O)=O)c(-c3ccc(O)c(-c4cc5ccccn5n4)n3)cc12 [Compound 255]
HCV replicon genotype 1b
  IC50: 104 nM
HCV replicon genotype 1a
  IC50: 1450 nM

## CNC(=O)c1c(-c2ccc(F)cc2)oc2cc(N(C)S(C)(=O)=O)c(-c3ccc(OC)c(-c4cc5ccccn5n4)n3)cc12 [Compound 254, 2-(4-fluorophenyl)-5-(5-methoxy-6-(pyrazolo[1,5-a]pyridin-2-yl)pyridin-2-yl)-N-methyl-6-(N-methylmethylsulfonamido)benzofuran-3-carboxamide]
HCV replicon genotype 1b
  IC50: 26 nM
HCV replicon genotype 1a
  IC50: 214 nM

## CNC(=O)c1c(-c2ccc(F)cc2)oc2cc(N(C)S(C)(=O)=O)c(-c3ccc(O)c(-c4cc5c(C#N)nccc5[nH]4)n3)cc12 [Compound 231]
HCV replicon genotype 1b
  IC50: 47 nM
HCV replicon genotype 1a
  IC50: 339 nM

## CNC(=O)c1c(-c2ccc(F)cc2)oc2cc(N(C)S(C)(=O)=O)c(-c3ccnc(-c4nc5c(F)cccc5o4)c3)cc12 [Compound 9]
HCV replicon genotype 1b
  IC50: 1.3 nM
HCV replicon genotype 1a
  IC50: 0.6 nM

## CNC(=O)c1c(-c2ccc(F)cc2)oc2cc(N(C)S(C)(=O)=O)c(-c3cnnc(-c4cc5c(C#N)cccc5[nH]4)c3)cc12 [Compound 260]
HCV replicon genotype 1b
  IC50: 1.1 nM
HCV replicon genotype 1a
  IC50: 0.7 nM

## CNC(=O)c1c(-c2ccc(F)cc2)oc2cc(N(C)S(C)(=O)=O)c(-c3cc(-c4cc5c(F)cccc5[nH]4)c(OC)nn3)cc12 [Compound 218]
HCV replicon genotype 1b
  IC50: 9.2 nM
HCV replicon genotype 1a
  IC50: 4.2 nM

## CNC(=O)c1c(-c2ccc(F)cc2)oc2cc(N(C)S(C)(=O)=O)c(-c3cnnc(-n4cc5c(F)cccc5n4)c3)cc12 [Compound 265]
HCV replicon genotype 1b
  IC50: 4.1 nM
HCV replicon genotype 1a
  IC50: 4.5 nM

## CNC(=O)c1c(-c2ccc(F)cc2)oc2cc(N(C)S(C)(=O)=O)c(-c3cnnc(-c4[nH]c5ccccc5c4C)c3)cc12 [Compound 288]
HCV replicon genotype 1b
  IC50: 25 nM
HCV replicon genotype 1a
  IC50: 75 nM

## CNC(=O)c1c(-c2ccc(F)cc2)oc2cc(N(C)S(C)(=O)=O)c(-c3cnnc(-n4ncc5c(F)cccc54)c3)cc12 [Compound 264]
HCV replicon genotype 1b
  IC50: 10 nM
HCV replicon genotype 1a
  IC50: 25 nM

## CNC(=O)c1c(-c2ccc(F)cc2)oc2cc(N(C)S(C)(=O)=O)c(-c3cnnc(-c4cc5c(C#N)cccc5n4C)c3)cc12 [Compound 273]
HCV replicon genotype 1b
  IC50: 0.2 nM
HCV replicon genotype 1a
  IC50: 0.3 nM

## CNC(=O)c1c(-c2ccc(F)cc2)oc2cc(N(C)S(C)(=O)=O)c(-c3cc(-c4nc5c(F)cccc5o4)c(F)cn3)cc12 [Compound 13]
HCV replicon genotype 1b
  IC50: 1.4 nM
HCV replicon genotype 1a
  IC50: 0.7 nM

## CNC(=O)c1c(-c2ccc(F)cc2)oc2cc(N(C)S(C)(=O)=O)c(-c3cncc(-c4cc5cccc(F)c5[nH]4)n3)cc12 [Compound 139]
HCV replicon genotype 1b
  IC50: 0.8 nM
HCV replicon genotype 1a
  IC50: 0.8 nM

## CNC(=O)c1c(-c2ccc(F)cc2)oc2cc(N(C)S(C)(=O)=O)c(-c3cncc(-c4cc5ccccc5[nH]4)n3)cc12 [Compound 113]
HCV replicon genotype 1b
  IC50: 0.8 nM
HCV replicon genotype 1a
  IC50: 0.3 nM

## CNC(=O)c1c(-c2ccc(F)cc2)oc2cc(N(C)S(C)(=O)=O)c(-c3cc(N4Cc5cccc(F)c5C4)ncc3OC)cc12 [Compound 294]
HCV replicon genotype 1b
  IC50: 22 nM
HCV replicon genotype 1a
  IC50: 54 nM

## CNC(=O)c1c(-c2ccc(F)cc2)oc2cc(N(C)S(C)(=O)=O)c(-c3cnnc(-c4cc5ncccc5[nH]4)c3)cc12 [Compound 286]
HCV replicon genotype 1b
  IC50: 5 nM
HCV replicon genotype 1a
  IC50: 17 nM

## CNC(=O)c1c(-c2ccc(F)cc2)oc2cc(N(C)S(C)(=O)=O)c(-c3ccnc(-c4cc5c(C#N)cccc5[nH]4)c3)cc12 [Compound 233]
HCV replicon genotype 1b
  IC50: 0.4 nM
HCV replicon genotype 1a
  IC50: 0.1 nM

## CNC(=O)c1c(-c2ccc(F)cc2)oc2cc(N(C)S(C)(=O)=O)c(-c3cc(-c4cc5ccccc5[nH]4)c(OC)nn3)cc12 [Compound 209]
HCV replicon genotype 1b
  IC50: 4.7 nM
HCV replicon genotype 1a
  IC50: 8.9 nM

## CNC(=O)c1c(-c2ccc(F)cc2)oc2cc(N(C)S(C)(=O)=O)c(-c3cc(-c4cc5c(F)cccc5[nH]4)ncc3-c3cc4c(F)cccc4[nH]3)cc12 [Compound 290]
HCV replicon genotype 1b
  IC50: 10 nM
HCV replicon genotype 1a
  IC50: 9.8 nM
